From ChEMBL document CHEMBL5247665, “Improved synthesis and anticancer activity of a potent neuronal nitric oxide synthase inhibitor” (Bioorg Med Chem Lett, 2023)

Experiment: Toxicity in mouse at 10 mg/kg measured after 21 days
Format: organism-based
Settings: in vivo, 504 h, time 21 day

In the case of `CNCc1cccc(CCc2ccc3c(C)cc(N)nc3c2)c1.Cl.Cl`, the Activity is reported as “Non-Toxic”.
